Values joined by “and” are separate entries in the source; they are usually repeats but may differ in a detail not shown here. Identical values can stand only once.
How the values were obtained:
MAO A [1] = assay: Effect of repeated s.c. or oral administration of clorgyline on MAO A activity in striatum, intestine and liver (Example 3); assay type: in vivo, mice; settings: for MAO A inhibition in the liver: single or multiple
Description: (§1) MAO A and MAO B activity were measured as previously described (Yu and Hertz, J. Neurochem. 39:1492-5 (1982)), using 14C-phenylethylamine and 14C-5-hydroxytryptamine as selective substrates for MAO B and MAO A, respectively. Preliminary experiments were performed to ensure that enzyme activity was linear with respect to time and enzyme concentration, and that no more than 10-20% of the substrate was consumed during the incubation period (data not shown). Protein was measured by the method of Lowry et al. (J. Biol. Chem. 193:265-75 (1951)).
MAO A activity was measured and compared in the striatum, intestine and liver.

MAO A [2] = assay: MAO A activity in mouse striatum, liver and gut after subcutaneous clorgyline (Example 1); assay type: in vivo, C57BL/6 mice
Description: All experiments were performed in strict accordance with the National Institutes of Health (NIH) Guide for the Care and Use of Laboratory Animals. C57BL/6 mice were housed under constant temperature (22° C.) and humidity conditions in a room illuminated for 12 hours per day, with food and water freely available. […] Animals were sacrificed five hours after drug administration. Brains were removed, and dissection of the striata was performed within two minutes of cervical dislocation. Tissues were collected in buffer (pH 7.2), sonicated for approximately 10 seconds, and stored at -70° C. Similar procedures were used to collect, homogenize and store samples from the liver and gut of the animals.
as §1

MAO A [3] = assay: Comparison of parenteral (s.c.) and oral clorgyline on MAO A activity in striatum, gut and liver (Example 2); assay type: in vivo, mice; settings: for MAO activity in the striatum, % of control values: mouse striatum; for extent of inhibition of intestinal MAO A activity: mouse intestine
Description: as §1

[4] = 0.6 mg/kg oral, single administration, 5 h
[5] = 0.6 mg/kg, s.c. or oral, mouse liver
[6] = 0.6 mg/kg parenteral (s.c.), 5 h

## C#CCN(C)CCCOc1ccc(Cl)cc1Cl [clorgyline]
MAO A [1]; 0.6 mg/kg oral, multiple administration (five, every 24 h), 5 h after last
  intestine MAO A, % of control activity: ~15 % of control
MAO A [1]; [4]
  intestine MAO A, % of control activity: Approximately 20 % of control
  striatal MAO A inhibition: 15%
MAO A [1]; 0.6 mg/kg oral
  MAO A inhibition in the liver: ≤ 25%
MAO A [1]; 0.6 mg/kg per os, multiple treatments (five, every 24 h), 5 h after last
  striatal MAO A residual activity, % of control: about 50 % of control
MAO A [1]; 0.6 mg/kg s.c., five consecutive treatments every 24 h, 5 h after last
  striatal MAO A activity, % of the control value: 2 % of control
MAO A [1]; 0.6 mg/kg s.c., injected once, 5 h
  inhibition of intestinal MAO A: 50%
MAO A [1]; 0.6 mg/kg s.c., single administration, 5 h
  striatal MAO A inhibition: approximately 90%
MAO A [1]; 0.6 mg/kg subcutaneous
  MAO A inhibition in the liver: ≤ 25%
MAO A [1]; [5]
  change in extent of MAO inhibition in the liver, single versus multiple treatments: no significant changes
MAO A [2]; 0.6 mg/kg s.c., 5 h after dose, mouse gut
  MAO A activity remaining in the gut: 50% and > 50%
MAO A [2]; 0.6 mg/kg s.c., 5 h after dose, mouse liver
  MAO A activity remaining in the liver: > 50%
MAO A [2]; 0.6 mg/kg s.c., 5 h after dose, mouse striatum
  inhibition of MAO A activity in the striatum: 90% and > 90%
MAO A [2]; 0.6 mg/kg s.c., mouse gut
  MAO A inhibition in the gut: approximately 50%
MAO A [2]; 0.6 mg/kg s.c., mouse liver
  MAO A inhibition in the liver: approximately 50%
MAO A [2]; 0.8 mg/kg s.c., 5 h after dose, mouse gut
  MAO A activity in the gut: 31%
MAO A [2]; 0.8 mg/kg s.c., 5 h after dose, mouse liver
  MAO A activity in the liver: about 50%
MAO A [2]; 1 mg/kg s.c., 5 h after dose, mouse gut
  MAO activity in the gut, % of control: 27 % of control
MAO A [2]; 1 mg/kg s.c., 5 h after dose, mouse liver
  MAO activity in the liver, % of control: 51 % of control
MAO A [2]; 1 mg/kg s.c., 5 h after dose, mouse striatum
  MAO A inhibition in the striatum: > 90%
MAO A [3]; 0.6 mg/kg oral gavage, 5 h
  MAO activity in the striatum, % of control values: 40 % of control
MAO A [3]; 0.6 mg/kg oral, 5 h
  extent of inhibition of intestinal MAO A activity: 89%
MAO A [3]; [6]
  extent of inhibition of intestinal MAO A activity: 55%
  MAO activity in the striatum, % of control values: 11 % of control
MAO A [3]; 0.6 mg/kg parenteral injection, mouse gut
  MAO A activity maintained in the gut: 50%
MAO A [3]; 0.6 mg/kg, 5 h, mouse liver
  difference in extent of inhibition of MAO A activity in the liver, oral compared with subcutaneous: No significant difference
MAO A [3]; [5]
  MAO A activity present in the liver after clorgyline exposure: more than 50%

— US5792799A, “Parenteral delivery of MAO A inhibitors” (Athena Neurosciences, Inc., priority 1996, dated 1998)
